# Results: ChEMBL document CHEMBL4725437, “P450s under Restriction (PURE) Screen Using HepaRG and Primary Human Hepatocytes for Discovery of Novel HBV Antivirals” (ACS Med Chem Lett, 2020)
# Activity calls are given as the source filed them. The rule behind the calls is not given here.
# Experiments:
# Hepatocyte [1] = assay: (§1) Cytotoxicity against human primary hepatocytes infected with HBV assessed as reduction in cell viability at 10 mM treated for 1 hr on day 5 post-infection followed by removal of media and supplemented with fresh media and further incubated for 3 days then followed by treatment for 1 hr on day 8 post-infection followed by removal of media and supplemented with fresh media and further incubated for 3 days in presence of 25 uM SKF-525A and measured on day 11 post-infection by Celltiter-Glo assay; type: cell-based; conditions: 10000 µM
# Cytochrome P450 2C9 [2] = target: T1, Cytochrome P450 2C9 (Homo sapiens, UniProt P11712); assay: (§2) Inhibition of CYP2C9 in HBV-infected human HepaRG cells at 0.2 to 20 mM using luciferin-H as substrate treated for 1 hr on day 5 post-infection followed by removal of media and supplemented with fresh media and further incubated for 3 days then followed by treatment for 1 hr on day 8 post-infection followed by removal of media and supplemented with fresh media and further incubated for 3 days and measured on day 11 post-infection by P450-Glo chemiluminescent assay; type: ADME, tissue-based; conditions: 20000 µM, dose 0.2-20 mM
# CYP1A2 [3] = target: T2, CYP1A2 (Homo sapiens, UniProt P05177); assay: (§3) Inhibition of CYP1A2 in HBV-infected human HepaRG cells at 10 mM using luciferin-1A2 as substrate treated for 1 hr on day 5 post-infection followed by removal of media and supplemented with fresh media and further incubated for 3 days then followed by treatment for 1 hr on day 8 post-infection followed by removal of media and supplemented with fresh media and further incubated for 3 days in presence of 50 uM SKF-525A and measured on day 11 post-infection by P450-Glo chemiluminescent assay relative to control; type: ADME, tissue-based; conditions: probe luciferin-1A2, with SKF-525A 50 uM
# T2 sequence (P05177 whole entry): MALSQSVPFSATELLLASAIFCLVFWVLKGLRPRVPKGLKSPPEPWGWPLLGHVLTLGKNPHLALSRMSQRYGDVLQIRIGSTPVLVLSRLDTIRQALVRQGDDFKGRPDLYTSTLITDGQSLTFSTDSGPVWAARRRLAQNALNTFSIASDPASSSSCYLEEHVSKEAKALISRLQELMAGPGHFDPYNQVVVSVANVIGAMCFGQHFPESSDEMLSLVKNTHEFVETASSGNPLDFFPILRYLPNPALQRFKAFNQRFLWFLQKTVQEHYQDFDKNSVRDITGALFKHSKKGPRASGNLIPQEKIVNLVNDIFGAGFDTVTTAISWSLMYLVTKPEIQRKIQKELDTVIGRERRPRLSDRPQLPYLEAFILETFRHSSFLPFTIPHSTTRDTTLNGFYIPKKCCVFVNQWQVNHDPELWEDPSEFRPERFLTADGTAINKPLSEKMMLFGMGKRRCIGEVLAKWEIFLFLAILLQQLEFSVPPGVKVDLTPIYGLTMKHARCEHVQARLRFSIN
# Hepatitis B virus [4] = assay: (§4) Antiviral activity against Hepatitis B virus infected in human primary hepatocytes assessed as reduction in HbsAg secretion level at 10 mM treated for 1 hr on day 5 post-infection followed by removal of media and supplemented with fresh media and further incubated for 3 days then followed by treatment for 1 hr on day 8 post-infection followed by removal of media and supplemented with fresh media and further incubated for 3 days in presence of 50 uM SKF-525A and measured on day 11 post-infection by chemiluminescence immunostaining assay relative to control; type: functional, organism-based; conditions: Primary hepatocyte
# Cytochrome P450 1A2 [5] = target: T3, Cytochrome P450 1A2 (Homo sapiens, UniProt P05177); assay: as §2, with “CYP1A2” for “CYP2C9”, “luciferin-1A2” for “luciferin-H”; type: ADME, tissue-based; conditions: 20000 µM, dose 0.2-20 mM
# T3 sequence (P05177 whole entry): T2 sequence (P05177 whole entry)
# Cytochrome P450 1A2 [6] = target: T3, Cytochrome P450 1A2; assay: as §2, with “CYP1A2” for “CYP2C9”, “primary hepatocytes” for “HepaRG cells”, “luciferin-1A2” for “luciferin-H”; type: ADME, tissue-based; conditions: heparg, 20000 µM, dose 0.2-20 mM
# CYP1A2 [7] = target: T2, CYP1A2; assay: (§5) Inhibition of CYP1A2 in HBV-infected human HepaRG cells at 10 mM using luciferin-1A2 as substrate treated for 1 hr on day 5 post-infection followed by removal of media and supplemented with fresh media and further incubated for 3 days by P450-Glo chemiluminescent assay relative to control; type: ADME, tissue-based; conditions: probe luciferin-1A2
# CYP2C9 [8] = target: T4, CYP2C9 (Homo sapiens, UniProt P11712); assay: as §3, with “CYP2C9” for “CYP1A2”, “luciferin-H” for “luciferin-1A2”; type: ADME, tissue-based; conditions: probe luciferin-H, with SKF-525A 50 uM
# CYP2C9 [9] = target: T4, CYP2C9; assay: (§6) Inhibition of CYP2C9 in HBV-infected human HepaRG cells at 10 mM using luciferin-H as substrate treated for 1 hr on day 5 post-infection followed by removal of media and supplemented with fresh media and further incubated for 3 days by P450-Glo chemiluminescent assay relative to control; type: ADME, tissue-based; conditions: probe luciferin-H
# Hepatitis B virus [10] = assay: as §4, with “25” for “50”, “assay” for “assay relative to control”; type: functional, Primary hepatocyte; parameters: scale not given: the % may be the effect or the level left
# CYP3A4 [11] = target: T5, CYP3A4 (Homo sapiens, UniProt P08684); assay: (§7) Inhibition of CYP3A4 in HBV-infected human HepaRG cells at 10 mM using luciferin-IPA as substrate treated for 1 hr on day 5 post-infection followed by removal of media and supplemented with fresh media and further incubated for 3 days by P450-Glo chemiluminescent assay relative to control; type: ADME, tissue-based; conditions: probe luciferin-IPA
# CYP3A4 [12] = target: T5, CYP3A4; assay: as §3, with “CYP3A4” for “CYP1A2”, “luciferin-IPA” for “luciferin-1A2”; type: ADME, tissue-based; conditions: probe luciferin-IPA, with SKF-525A 50 uM
# Hepatitis B virus [13] = assay: as §4, with “in human HepaRG cells assessed as” for “in human primary hepatocytes assessed as”, “for 3 B37days then followed” for “for 3 days then followed”, “50 uM SKF-525Aand measured on” for “50 uM SKF-525A and measured on”, “immunostaining assay” for “immunostaining assay relative to control”; type: functional, organism-based
# CYP1A2 [14] = target: T2, CYP1A2; assay: as §3, with “days” for “days in presence of 50 uM SKF-525A”; type: ADME, tissue-based; conditions: probe luciferin-1A2
# CYP2C9 [15] = target: T4, CYP2C9; assay: as §2, with “10” for “0.2 to 20”, “assay relative to control” for “assay”; type: ADME, tissue-based; conditions: probe luciferin-H
# CYP3A4 [16] = target: T5, CYP3A4; assay: as §7, with “days in presence of 50 uM SKF-525A” for “days”; type: ADME, tissue-based; conditions: probe luciferin-IPA, with SKF-525A 50 uM
# Cytochrome P450 3A4 [17] = target: T6, Cytochrome P450 3A4 (Homo sapiens, UniProt P08684); assay: as §2, with “CYP3A4” for “CYP2C9”, “primary hepatocytes” for “HepaRG cells”, “luciferin-IPA” for “luciferin-H”; type: ADME, tissue-based, Primary hepatocyte; conditions: 20000 µM, dose 0.2-20 mM
# CYP3A4 [18] = target: T5, CYP3A4; assay: as §7, with “days then followed by treatment for 1 hr on day 8 post-infection followed by removal of media and supplemented with fresh media and further incubated for 3 days and measured on day 11 post-infection” for “days”; type: ADME, tissue-based; conditions: probe luciferin-IPA
# HepaRG [19] = assay: as §1, with “HepaRG cells” for “primary hepatocytes”, “0.2 to 20” for “10”, “days” for “days in presence of 25 uM SKF-525A”; type: cell-based; conditions: 20000 µM, dose 0.2-20 mM
# CYP1A2 [20] = target: T2, CYP1A2; assay: as §5, with “days in presence of 50 uM SKF-525A” for “days”; type: ADME, tissue-based; conditions: probe luciferin-1A2, with SKF-525A 50 uM
# HepaRG [21] = assay: as §1, with “human HepaRG cells” for “human primary hepatocytes”, “of 50” for “of 25”; type: cell-based; conditions: 10000 µM
# CYP2C9 [22] = target: T4, CYP2C9; assay: as §6, with “days in presence of 50 uM SKF-525A” for “days”; type: ADME, tissue-based; conditions: probe luciferin-H, with SKF-525A 50 uM
# Hepatocyte [23] = assay: as §1, with “of 50” for “of 25”, “assay relative to control” for “assay”; type: cell-based
# Cytochrome P450 2C9 [24] = target: T1, Cytochrome P450 2C9; assay: as §2, with “primary hepatocytes” for “HepaRG”; type: ADME, tissue-based, Primary hepatocyte; conditions: 20000 µM, dose 0.2-20 mM
# Cytochrome P450 3A4 [25] = target: T6, Cytochrome P450 3A4; assay: as §2, with “CYP3A4” for “CYP2C9”, “luciferin-IPA” for “luciferin-H”; type: ADME, tissue-based; conditions: 20000 µM, dose 0.2-20 mM
# T4 sequence (P11712 whole entry): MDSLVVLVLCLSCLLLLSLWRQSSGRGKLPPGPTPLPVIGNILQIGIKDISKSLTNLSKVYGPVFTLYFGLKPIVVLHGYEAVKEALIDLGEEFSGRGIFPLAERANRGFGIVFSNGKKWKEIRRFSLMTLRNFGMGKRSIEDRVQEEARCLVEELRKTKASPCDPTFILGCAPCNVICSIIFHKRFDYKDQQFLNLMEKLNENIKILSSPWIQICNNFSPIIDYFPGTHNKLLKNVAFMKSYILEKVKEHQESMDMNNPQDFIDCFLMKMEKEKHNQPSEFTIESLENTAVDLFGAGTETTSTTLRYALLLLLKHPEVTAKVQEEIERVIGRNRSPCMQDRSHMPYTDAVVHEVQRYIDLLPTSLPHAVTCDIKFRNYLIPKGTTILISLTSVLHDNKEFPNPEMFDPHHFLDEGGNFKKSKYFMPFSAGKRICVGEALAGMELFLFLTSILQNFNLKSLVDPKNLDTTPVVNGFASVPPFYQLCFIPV
# T5 sequence (P08684 whole entry): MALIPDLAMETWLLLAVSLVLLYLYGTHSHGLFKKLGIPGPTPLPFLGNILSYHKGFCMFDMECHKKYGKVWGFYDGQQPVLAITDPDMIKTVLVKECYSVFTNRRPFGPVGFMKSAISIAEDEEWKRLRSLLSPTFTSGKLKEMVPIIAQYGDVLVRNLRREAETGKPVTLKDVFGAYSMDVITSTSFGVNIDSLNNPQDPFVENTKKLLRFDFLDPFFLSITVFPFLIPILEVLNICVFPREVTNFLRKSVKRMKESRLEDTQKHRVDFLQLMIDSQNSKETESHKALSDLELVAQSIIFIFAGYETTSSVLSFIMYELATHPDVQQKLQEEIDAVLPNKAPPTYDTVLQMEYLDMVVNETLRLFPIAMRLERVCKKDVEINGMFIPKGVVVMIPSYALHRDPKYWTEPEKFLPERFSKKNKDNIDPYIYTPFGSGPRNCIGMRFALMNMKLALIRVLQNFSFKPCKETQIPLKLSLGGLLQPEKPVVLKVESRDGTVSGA
# T1 sequence (P11712 whole entry): as the sequence (P11712 whole entry) above
# T6 sequence (P08684 whole entry): as the sequence (P08684 whole entry) above
smiles,measurement,setting,value
Nn1nnc2ccccc21,Activity,Hepatocyte [1],Non-Toxic
same,inhibition (INH),Cytochrome P450 2C9 [2],Active
same,"inhibition at 1 h, 10000 µM",CYP1A2 [3],88.8%
same,Activity,Hepatitis B virus [4],inactive
same,inhibition (INH),Cytochrome P450 1A2 [5],Active
same,inhibition (INH),Cytochrome P450 1A2 [6],Active
same,"inhibition at 1 h, 10000 µM",CYP1A2 [7],37.1%
same,"inhibition at 1 h, 10000 µM",CYP2C9 [8],82.1%
same,"inhibition at 1 h, 10000 µM",CYP2C9 [9],-9.4%
same,Activity,Hepatitis B virus [10],20%
same,"inhibition at 1 h, 10000 µM",CYP3A4 [11],9.6%
same,"inhibition at 2 h, 10000 µM",CYP3A4 [12],90.3%
same,Activity,Hepatitis B virus [13],inactive
same,"inhibition at 1 h, 10000 µM",CYP1A2 [14],91%
same,"inhibition at 1 h, 10000 µM",CYP2C9 [15],67.5%
same,"inhibition at 1 h, 10000 µM",CYP3A4 [16],83.3%
same,inhibition (INH),Cytochrome P450 3A4 [17],Active
same,"inhibition at 1 h, 50 µM",CYP3A4 [18],87.8%
same,Activity,HepaRG [19],Non-Toxic
same,"inhibition at 1 h, 10000 µM",CYP1A2 [20],39.2%
same,Activity,HepaRG [21],Non-Toxic
same,"inhibition at 1 h, 10000 µM",CYP2C9 [22],36.9%
same,Activity,Hepatocyte [23],10%
same,inhibition (INH),Cytochrome P450 2C9 [24],Active
same,inhibition (INH),Cytochrome P450 3A4 [25],Active
